ChEMBL document CHEMBL1909046, “DrugMatrix in vitro pharmacology data”
Where a SMILES comes first, the peptide text is derived from it. Bridges are numbered along the chain shown (N, C = ends). [ ]: non-standard residue; d: D form. The star is where a group is joined. Threoninol(2S,3R) = C[C@@H](O)[C@H](CO)N*

How the values were obtained:
[1] = target: T1, Cytochrome P450 1A2 (Homo sapiens, UniProt P05177); conditions: bti-tn-5b1-4; further: in other assays of this panel Not Active means under 50% inhibition at 10 µM
T1 sequence (P05177 whole entry): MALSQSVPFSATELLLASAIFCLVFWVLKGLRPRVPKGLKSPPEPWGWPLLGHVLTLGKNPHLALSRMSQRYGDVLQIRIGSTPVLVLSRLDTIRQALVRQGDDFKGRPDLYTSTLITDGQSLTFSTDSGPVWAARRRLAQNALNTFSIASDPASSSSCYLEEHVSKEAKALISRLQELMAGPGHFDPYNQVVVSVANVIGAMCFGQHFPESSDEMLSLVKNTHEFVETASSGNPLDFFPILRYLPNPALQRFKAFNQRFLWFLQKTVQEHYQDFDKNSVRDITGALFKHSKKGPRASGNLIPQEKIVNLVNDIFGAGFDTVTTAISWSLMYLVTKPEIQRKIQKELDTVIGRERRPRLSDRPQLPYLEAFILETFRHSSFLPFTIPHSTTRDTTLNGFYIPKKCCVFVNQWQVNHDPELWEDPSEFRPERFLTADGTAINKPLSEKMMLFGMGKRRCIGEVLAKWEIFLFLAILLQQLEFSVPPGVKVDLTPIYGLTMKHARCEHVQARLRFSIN

[2] = target: cGMP-specific 3',5'-cyclic phosphodiesterase (Homo sapiens, UniProt O76074); assay: DRUGMATRIX: Phosphodiesterase PDE5 enzyme inhibition (substrate: [3H]cGMP + cGMP); format: tissue-based; conditions: platelet; Not Active = under 50% inhibition at 10 µM
[3] = target: D(1A) dopamine receptor (Homo sapiens, UniProt P21728); assay: DRUGMATRIX: Dopamine D1 radioligand binding (ligand: [3H] SCH-23390); format: cell membranes, Membrane; conditions: cho; Not Active = under 50% inhibition at 10 µM
D(1A) dopamine receptor, sequence (P21728 whole entry): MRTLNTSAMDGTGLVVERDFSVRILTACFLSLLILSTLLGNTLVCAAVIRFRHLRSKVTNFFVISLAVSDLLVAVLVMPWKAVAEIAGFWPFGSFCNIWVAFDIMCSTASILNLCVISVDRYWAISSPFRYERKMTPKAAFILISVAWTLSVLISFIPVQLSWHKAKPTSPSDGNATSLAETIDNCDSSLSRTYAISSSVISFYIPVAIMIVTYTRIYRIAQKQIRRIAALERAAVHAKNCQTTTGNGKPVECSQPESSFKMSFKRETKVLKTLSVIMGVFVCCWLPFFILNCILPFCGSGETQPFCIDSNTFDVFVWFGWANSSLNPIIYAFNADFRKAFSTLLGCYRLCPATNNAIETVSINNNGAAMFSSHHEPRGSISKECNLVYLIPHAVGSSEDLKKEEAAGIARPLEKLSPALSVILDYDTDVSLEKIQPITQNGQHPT

[4] = target: T2, Alpha-1A adrenergic receptor (Rattus norvegicus, UniProt P43140); assay: DRUGMATRIX: Alpha-1A adrenergic receptor radioligand binding (ligand: prazosin); format: cell membranes, Wistar, Submaxillary gland, Membrane; conditions: Not Active = under 50% inhibition at 10 µM
T2 sequence (P43140 whole entry): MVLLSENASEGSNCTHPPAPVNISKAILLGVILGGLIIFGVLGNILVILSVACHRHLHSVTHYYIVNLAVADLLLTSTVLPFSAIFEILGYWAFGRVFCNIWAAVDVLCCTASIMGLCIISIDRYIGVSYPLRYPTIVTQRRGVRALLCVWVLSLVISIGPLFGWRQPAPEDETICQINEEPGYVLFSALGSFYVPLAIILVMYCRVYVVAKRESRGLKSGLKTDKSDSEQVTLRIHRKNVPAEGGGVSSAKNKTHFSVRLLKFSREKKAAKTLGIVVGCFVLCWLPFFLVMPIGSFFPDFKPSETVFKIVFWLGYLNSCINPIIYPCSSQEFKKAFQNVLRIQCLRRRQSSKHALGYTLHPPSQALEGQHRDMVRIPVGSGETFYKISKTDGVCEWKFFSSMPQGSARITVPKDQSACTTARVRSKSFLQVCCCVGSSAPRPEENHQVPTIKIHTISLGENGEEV

[5] = target: Delta-type opioid receptor (Homo sapiens, UniProt P41143); format: cell membranes, HEK293, Membrane; conditions: hek293; further: in other assays of this panel Not Active means under 50% inhibition at 10 µM
Delta-type opioid receptor, sequence (P41143 whole entry): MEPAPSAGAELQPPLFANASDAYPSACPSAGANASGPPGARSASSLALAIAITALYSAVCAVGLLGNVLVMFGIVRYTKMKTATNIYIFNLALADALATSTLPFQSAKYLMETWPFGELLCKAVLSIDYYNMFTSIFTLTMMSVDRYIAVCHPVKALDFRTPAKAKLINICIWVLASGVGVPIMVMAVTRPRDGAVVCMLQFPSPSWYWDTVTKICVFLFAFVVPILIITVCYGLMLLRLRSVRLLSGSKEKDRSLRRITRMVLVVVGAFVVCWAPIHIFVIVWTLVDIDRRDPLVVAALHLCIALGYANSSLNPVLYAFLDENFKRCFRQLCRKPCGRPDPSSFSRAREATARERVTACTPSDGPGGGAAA

[6] = DRUGMATRIX: Sigma2 radioligand binding (ligand: [3H] Ifenprodil); format: cell membranes, Rattus norvegicus, Wistar, Brain, Membrane; conditions: Not Active = under 50% inhibition at 10 µM
[7] = target: T3, 5-hydroxytryptamine receptor 1A (Rattus norvegicus, UniProt P19327); format: cell membranes, Membrane; conditions: cho-k1; further: in other assays of this panel Not Active means under 50% inhibition at 10 µM
T3 sequence (P19327 whole entry): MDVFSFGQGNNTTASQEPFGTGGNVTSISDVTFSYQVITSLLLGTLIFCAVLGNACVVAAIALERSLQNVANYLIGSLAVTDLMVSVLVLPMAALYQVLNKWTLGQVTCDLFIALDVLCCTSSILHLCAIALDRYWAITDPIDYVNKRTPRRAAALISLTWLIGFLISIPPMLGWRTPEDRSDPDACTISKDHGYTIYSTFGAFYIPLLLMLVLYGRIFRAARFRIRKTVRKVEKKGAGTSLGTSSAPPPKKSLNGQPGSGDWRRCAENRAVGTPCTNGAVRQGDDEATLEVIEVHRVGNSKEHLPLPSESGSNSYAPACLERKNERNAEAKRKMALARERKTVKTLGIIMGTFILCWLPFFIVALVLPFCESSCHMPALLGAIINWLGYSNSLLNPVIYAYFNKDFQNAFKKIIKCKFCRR

[8] = DRUGMATRIX: Tumor Necrosis Factor (TNF), Non-Selective radioligand binding (ligand: [125I] TNF-alpha); format: cell membranes, Membrane; conditions: u-937; Not Active = under 50% inhibition at 10 µM

COc1ccccc1C(=O)N1CCC(Cc2ccccc2)CC1
Not Active: IC50 [1] | Ki [1] | IC50 [2] | IC50 [3] | IC50 [4] | IC50 [5] | IC50 [6] | Ki [6] | IC50 [7] | IC50 [8] | Ki [8]

Cc1ccccc1C(=O)N1CCC(Cc2ccccc2)CC1
Not Active: IC50 [1] | Ki [1] | IC50 [2] | IC50 [3] | IC50 [4] | IC50 [5] | IC50 [6] | Ki [6] | IC50 [7] | IC50 [8] | Ki [8]

O=C1CC[C@H](N2C(=O)c3ccccc3C2=O)C(=O)N1
Not Active: IC50 [1] | Ki [1] | IC50 [2] | IC50 [3] | IC50 [4] | IC50 [5] | IC50 [6] | Ki [6] | IC50 [7] | IC50 [8] | Ki [8]

C[C@@H](O)[C@H](CO)NC(=O)[C@@H]1CSSC[C@H](NC(=O)[C@H](N)Cc2ccccc2)C(=O)N[C@@H](Cc2ccccc2)C(=O)N[C@H](Cc2c[nH]c3ccccc23)C(=O)N[C@@H](CCCCN)C(=O)N[C@@H]([C@@H](C)O)C(=O)N1 (H-[dF]CF[dW]KTC-{Threoninol(2S,3R)}; disulfide 2-7)
Not Active: IC50 [1] | Ki [1] | IC50 [2] | IC50 [3] | IC50 [4] | IC50 [5] | IC50 [6] | Ki [6] | IC50 [7] | IC50 [8] | Ki [8]

C[C@](O)(CS(=O)(=O)c1ccc(F)cc1)C(=O)Nc1ccc(C#N)c(C(F)(F)F)c1 [(R)-BICALUTAMIDE]
Not Active: IC50 [1] | Ki [1] | IC50 [2] | IC50 [3] | IC50 [4] | IC50 [5] | IC50 [6] | Ki [6] | IC50 [7] | IC50 [8] | Ki [8]

CCCC(=O)Nc1ccc(OCC(O)CNC(C)C)c(C(C)=O)c1 (configuration not stated) [ACEBUTOLOL]
Not Active: IC50 [1] | Ki [1] | IC50 [2] | IC50 [3] | IC50 [4] | IC50 [5] | IC50 [6] | Ki [6] | IC50 [7] | IC50 [8] | Ki [8]

CC(=O)Nc1ccc(O)cc1 [ACETAMINOPHEN]
Not Active: IC50 [1] | Ki [1] | IC50 [2] | IC50 [3] | IC50 [4] | IC50 [5] | IC50 [6] | Ki [6] | IC50 [7] | IC50 [8] | Ki [8]
